Consider 24 compounds from US11155547B1, “Compounds for and methods of treating diseases” (Alterity Therapeutics Limited, priority 2020, dated 2021).

One test has as its system human neuroblastoma line BE(2)-M17 (M17) cells. Description: Measurement of Fe efflux from cells (57Fe in media by ICP-MS). Format: cell-based. Particulars: Homo sapiens; M17 cells pre-loaded with 57Fe; compound 20 μM, 2 h; Fe in media as percentage increase relative to cell media in the absence of the compound; read-out: % Fe Efflux Range. The method, then: Compounds of the current invention were assessed for their ability to efflux iron (Fe) from a cell using the following protocol. The human neuroblastoma line BE(2)-M17 (M17) cell cultures were acquired from Sigma Aldrich (Catalogue #: 95011816). M17 cells were maintained in Opti-MEM reduced serum media supplemented with 10% fetal bovine serum (Bovogen, SFBSF) and passaged twice weekly. Cells were cultured at 37° C. in the presence of 5% CO2. Culture supplies were sourced from Thermo Fisher unless otherwise stated. A solution of ^57Fe isotope was prepared by dissolving ^57Fe metal (>95% enrichment, Trace Sciences International) in concentrated HCl to give a final concentration of 573 mM. From this master solution, a 10 mM working solution was prepared in sterile water. The working solution was used within two months of preparation. M17 cells were loaded with iron initially by seeding into 48-well plates at a density of 0.15×10^6 cells per well in 0.5 mL media. After 48 h, old media was discarded. Fresh media was added supplemented from the 10 mM ^57Fe working solution to yield media containing 20 μM ^57Fe isotope. Cells received 0.2 mL of this ^57Fe enriched media and were returned to the incubator for 20 h. The ability of experimental compounds to efflux iron was determined by the dissolution of compounds in DMSO and diluted in Hanks' Balanced Salt Solution (HBSS) for treatment of M17 cells. After ^57Fe incubation, cells were rinsed twice with HBSS and treated with 0.15 ml trial compound for 2 h. Experimental substances were routinely screened at a concentration of 20 μM, however dilutions ranging from 1-40 μM were occasionally applied to further elucidate the properties of key compounds. All assays included a relevant vehicle (0.4%-0.8% DMSO) as well as a positive control. Following the treatment period, 0.1 mL of media was collected from cells and the extracellular ^57Fe content was analysed via inductively coupled mass spectrometry (ICP-MS, Agilent 7700×series instrument). […] After 2 h the Fe levels in the media were measured and the increase determined as a percentage increase relative to the cell media in the absence of the compound. [formula] Representative data is provided in Table 1 where the % Fe efflux for the specified compounds of the invention lie in the following ranges: A<30%, B 30-100%, C 100-150%; D>150%
Take `Cc1ccc(O)c(-c2nc(-c3ccccc3O)n3c2CCCC3)n1` [Compound 1, 2-(3-(2-Hydroxyphenyl)-5,6,7,8-tetrahydroimidazo[1,5-a]pyridin-1-yl)-6-methylpyridin-3-ol]: the activation at 20 µM was > 150%.

For the compound `Cc1ccc(O)c(-c2nc(-c3cccc(F)c3O)n3c2CCCC3)n1` [Compound 2, 2-(3-(3-Fluoro-2-hydroxyphenyl)-5,6,7,8-tetrahydroimidazo[1,5-a]pyridin-1-yl)-6-methylpyridin-3-ol], the activation at 20 µM was > 150%. Still for that read-out and setting: for `Cc1ccc(O)c(-c2nc(-c3cc(F)ccc3O)n3c2CCCC3)n1` [Compound 3, 2-(3-(5-Fluoro-2-hydroxyphenyl)-5,6,7,8-tetrahydroimidazo[1,5-a]pyridin-1-yl)-6-methylpyridin-3-ol] the value was 100 to 150%; for `Cc1ccc(O)c(-c2nc(-c3c(O)cccc3F)n3c2CCCC3)n1` [Compound 4, 2-(3-(2-Fluoro-6-hydroxyphenyl)-5,6,7,8-tetrahydroimidazo[1,5-a]pyridin-1-yl)-6-methylpyridin-3-ol], 30 to 100%; for `Cc1ccc(O)c(-c2nc(-c3nc(C)ccc3O)c3n2CCCC3)c1` [Compound 5, 2-(3-(2-Hydroxy-5-methylphenyl)-5,6,7,8-tetrahydroimidazo[1,5-a]pyridin-1-yl)-6-methylpyridin-3-ol], > 150%. Same read-out and setting: for `Cc1ccc(O)c(-c2nc(-c3cccc(C)c3O)n3c2CCCC3)n1` [Compound 6, 2-(3-(2-Hydroxy-3-methylphenyl)-5,6,7,8-tetrahydroimidazo[1,5-a]pyridin-1-yl)-6-methylpyridin-3-ol] the value was 100 to 150%; for `Oc1ccccc1-c1nc(-c2ccccc2O)n2c1CCCC2` [Compound 7, 2,2′-(5,6,7,8-tetraHydroimidazo[1,5-a]pyridine-1,3-diyl)diphenol], < 30%. Same read-out and setting: next, `Cc1ccc(O)c(-c2nc(-c3ccccc3O)c3n2CCCC3)c1` [Compound 8, 2-(1-(2-Hydroxyphenyl)-5,6,7,8-tetrahydroimidazo[1,5-a]pyridin-3-yl)-4-methylphenol]: < 30%; `Oc1ccccc1-c1nc(-c2c(O)cccc2F)n2c1CCCC2` [Compound 9, 3-Fluoro-2-(1-(2-hydroxyphenyl)-5,6,7,8-tetrahydroimidazo[1,5-a]pyridin-3-yl)phenol]: < 30%; `COC(=O)c1ccc(O)c(-c2nc(-c3ccccc3O)c3n2CCCC3)c1` [Compound 10, Methyl 4-hydroxy-3-(1-(2-hydroxyphenyl)-5,6,7,8-tetrahydroimidazo[1,5-a]pyridin-3-yl)benzoate]: 30 to 100%. Turning to `Oc1ccccc1-c1nc(-c2ccccn2)n2c1CCCC2` [Compound 11, 2-(3-(Pyridin-2-yl)-5,6,7,8-tetrahydroimidazo[1,5-a]pyridin-1-yl)phenol], the activation at 20 µM is < 30%. The same measure, in the same setting: next, `Oc1ccccc1-c1nc(-c2cccc(CN3CCOCC3)c2O)n2c1CCCC2` [Compound 12, 2-(1-(2-Hydroxyphenyl)-5,6,7,8-tetrahydroimidazo[1,5-a]pyridin-3-yl)-6-(morpholinomethyl)phenol]: < 30%; `Cc1ccc(O)c(-c2nc(-c3cccnc3O)c3n2CCCC3)c1` [Compound 13, 3-(3-(2-Hydroxy-5-methylphenyl)-5,6,7,8-tetrahydroimidazo[1,5-a]pyridine-1-yl)pyridine-2-ol]: 100 to 150%; `Oc1ncccc1-c1nc(-c2cccc(Cl)c2O)n2c1CCCC2` [Compound 14, 3-(3-(3-Chloro-2-hydroxyphenyl)-5,6,7,8-tetrahydroimidazo[1,5-a]pyridin-1-yl)pyridin-2-ol]: 100 to 150%.

For the compound `Oc1ccccc1-c1nc(-c2cccnc2O)c2n1CCCC2` [Compound 15, 3-(3-(2-hydroxyphenyl)-5,6,7,8-tetrahydroimidazo[1,5-a]pyridin-1-yl)pyridin-2-ol], the activation at 20 µM fell in the range of 100 to 150%. On the same count and under the same terms, next, `CCN(CC)CCc1cccc(-c2nc(-c3ccncc3O)c3n2CCCC3)c1O` [Compound 22, 4-(3-(3-(2-(Diethylamino)ethyl)-2-hydroxyphenyl)-5,6,7,8-tetrahydroimidazo[1,5-a]pyridin-1-yl)pyridin-3-ol]: 100 to 150%; `Oc1ccncc1-c1nc(-c2ccccc2O)n2c1CCCC2` [Compound 29, 3-(3-(2-Hydroxyphenyl)-5,6,7,8-tetrahydroimidazo[1,5-a]pyridin-1-yl)pyridin-4-ol]: 100 to 150%. Still for that read-out and setting: next, `Oc1ccncc1-c1nc(-c2cccc(F)c2O)n2c1CCCC2` [Compound 30, 3-(3-(3-Fluoro-2-hydroxyphenyl)-5,6,7,8-tetrahydroimidazo[1,5-a]pyridin-1-yl)pyridin-4-ol]: > 150%. Same read-out and setting: next, `Oc1ccccc1-c1nc(-c2ccccc2O)n2c1CCC(C(F)(F)F)C2` (stereo not drawn) [Compound 36, 2,2′-(6-(Trifluoromethyl)-5,6,7,8-tetrahydroimidazo[1,5-a]pyridine-1,3-diyl)diphenol]: < 30%.

For `Cc1ccc(O)c(-c2nc(-c3ccccc3O)c3n2CC(C)CC3)c1` (stereo not drawn) [Compound 37, 2-(1-(2-Hydroxyphenyl)-6-methyl-5,6,7,8-tetrahydroimidazo[1,5-a]pyridin-3-yl)-4-methylphenol], the activation at 20 µM was < 30%. Still for that read-out and setting: for `Cc1ccc(O)c(-c2nc(-c3ccccc3O)c3n2CC(C(F)(F)F)CC3)c1` (stereo not drawn) [Compound 38, 2-(1-(2-Hydroxyphenyl)-6-(trifluoromethyl)-5,6,7,8-tetrahydroimidazo[1,5-a]pyridin-3-yl)-4-methylphenol] the value was < 30%.

For the compound `Cc1ccc(O)c(-c2nc(-c3ccccc3O)n3c2CCC3)n1` [Compound 50, 2-(3-(2-Hydroxyphenyl)-6,7-dihydro-5H-pyrrolo[1,2-c]imidazol-1-yl)-6-methylpyridin-3-ol], the activation at 20 µM is > 150%. Regarding `Cc1ccc(O)c(-c2nc(-c3cccc(F)c3O)n3c2CCC3)n1` [Compound 59, 2-(3-(3-Fluoro-2-hydroxyphenyl)-6,7-dihydro-5H-pyrrolo[1,2-c]imidazol-1-yl)-6-methylpyridin-3-ol], the activation at 20 µM was > 150%.

Staying with this test, now noted: M17 cells pre-loaded with 57Fe; compound 20 μM, 2 h; Fe in media as percentage increase relative to cell media in the absence of the compound.
On to `Oc1cnccc1-c1nc(-c2ccccc2O)n2c1CCCC2` [Compound 21, 4-(3-(2-Hydroxyphenyl)-5,6,7,8-tetrahydroimidazo[1,5-a]pyridin-1-yl)pyridin-3-ol], for which the “% Fe Efflux Range” value was “D (D>150%)”.
